The values below come from patent publication US20240287124A1, “PRODRUGS OF 4'-SUBSTITUTED NUCLEOSIDE REVERSE TRANSCRIPTASE INHIBITORS” (Merck Sharp & Dohme LLC, priority 2023, published 2024).

Data set [1] concerns HIV-1 wild-type (R8) virus. The experiment in a line: Viral KINetics in Green cells (VIKING) assay, HIV-1 replication in MT4-GFP reporter cells. The settings on record: MT4-GFP cells, HIV-1 wild-type (R8), read-out: Viking (10% NHS), IC50. Format: cell-based. Put shortly:
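MT4-GFP cells infected overnight with HIV-1 R8 at MOI ~0.01, then added to compound plates in RPMI with 10% normal human serum; 10-point 3-fold dilutions (typically 4 μM-0.2 nM). Green cells counted at ~48 h and 72 h; reproductive ratio (72 h/48 h) gave % inhibition, IC50 by 4-parameter fit.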

Data set [2] is described as follows: Aqueous solubility in PBS, pH 7.4. Format: physicochemical. Particulars: pH 7.4 phosphate buffered saline, 24 hours, amorphous or crystalline material; for solubility at 24 h: phosphate buffered saline, pH 7.4, aqueous buffer, thermodynamic from solid, read-out: Aqu. Solubility. As to the method: Aqueous solubility of the compounds was determined by suspending excess solid (typically 0.3-0.5 mg) in PBS, pH 7.4, at a concentration of 0.5 mg/mL. The suspension was vortexed for 10-30 seconds to wet the material and stirred at 600 rpm for 24 hours. For analysis by UPLC, 150 μL aliquot sample was transferred into a […] PVDF spin filter and centrifuged at 14,000 rpm for 5 minutes. 100 μL of the filtrate was diluted with 100 μL 1:1 Acetonitrile (ACN):H2O. The resultant samples were analyzed using UPLC and quantified against a standard curve of the compound of interest dissolved in 1:1 ACN:H2O. The retains of the solids were checked by XRPD and PLM to determine if the phase of the material was crystalline or amorphous.

Where [3] appears, read: Human immunodeficiency virus 1, 10% normal human serum.

Converted amounts (≈) assume the structure as drawn. Like-named read-outs stand apart in the source and are kept apart here.

With `C#C[C@]1(COC(=O)OCCCCC[C@@H]2SC[C@@H]3NC(=O)N[C@@H]32)O[C@@H](n2ccc3c(N)nc(Cl)nc32)C[C@@H]1OC(=O)OCC` [Example 171], the IC50 in data set [1] (setting [3]) turned out to be 18 nM. For the same molecule, the solubility at 24 h in data set [2] is 1.9 µg/mL (≈ 2.98 µM).
As to `C#C[C@]1(COC(=O)[C@@H](C)c2ccccc2)O[C@@H](n2ccc3c(N)nc(Cl)nc32)C[C@@H]1O` [Example 101], the half-inhibitory concentration (IC50) in data set [1] (setting [3]) was found to be 3.4 nM. The solubility at 24 h in data set [2] amounted to 19 µg/mL (≈ 43.1 µM).
As to `C#C[C@]1(COC(=O)CCCCC)O[C@@H](n2ccc3c(N)nc(Cl)nc32)C[C@@H]1O` [Example 116], the concentration for half-maximal inhibition (IC50) in data set [1] (setting [3]) worked out at 4.2 nM. Moreover, the solubility at 24 h in data set [2] was 39 µg/mL (≈ 95.9 µM).
On to `C#C[C@]1(COCOC(=O)OC(C)C)O[C@@H](n2ccc3c(N)nc(Cl)nc32)C[C@@H]1O` [Example 133], for which the IC50 in data set [1] (setting [3]) was 2.7 nM. For the same molecule, in data set [2], the solubility at 24 h is 341 µg/mL (≈ 803 µM).
Turning to `C#C[C@]1(CO)O[C@@H](n2ccc3c(N)nc(Cl)nc32)C[C@@H]1OC(=O)C1CCCCC1` [Example 77], the half-maximal inhibitory concentration (IC50) in data set [1] (setting [3]) came out at 5 nM. In addition, the solubility at 24 h in data set [2] worked out at 14 µg/mL (≈ 33.4 µM).
Take `C#C[C@]1(COC(=O)CCCC[C@@H]2SC[C@@H]3NC(=O)N[C@@H]32)O[C@@H](n2ccc3c(N)nc(Cl)nc32)C[C@@H]1O` [Example 145]: in data set [1] (setting [3]), the half-maximal inhibitory concentration (IC50) amounted to 3.2 nM. Moreover, the solubility at 24 h in data set [2] was determined as 38 µg/mL (≈ 71 µM).
In the case of `C#C[C@]1(CO)O[C@@H](n2ccc3c(N)nc(Cl)nc32)C[C@@H]1OC(=O)CCCCCCCC` [Example 55, (2R,3S,5R)-5-(4-amino-2-chloro-7H-pyrrolo[2,3-d]pyrimidin-7-yl)-2-ethynyl-2-(hydroxymethyl)tetrahydrofuran-3-yl nonanoate], in data set [1] (setting [3]), the IC50 is 2.2 nM. Further, the solubility at 24 h in data set [2] was below 1 µg/mL.
`C#C[C@]1(COC(=O)[C@H](C)c2ccccc2)O[C@@H](n2ccc3c(N)nc(Cl)nc32)C[C@@H]1O` [Example 100]: in data set [1] (setting [3]), the IC50 amounted to 2.5 nM. Further, the solubility at 24 h in data set [2] worked out at 72 µg/mL (≈ 163 µM).
Turning to `C#C[C@]1(COC(=O)OCCCCCCCCCC)O[C@@H](n2ccc3c(N)nc(Cl)nc32)C[C@@H]1O` [Example 18, ((2R,3S,5R)-5-(4-amino-2-chloro-7H-pyrrolo[2,3-d]pyrimidin-7-yl)-2-ethynyl-3-hydroxytetrahydrofuran-2-yl)methyl decyl carbonate], the 50% inhibitory concentration (IC50) in data set [1] (setting [3]) is 2.1 nM. Moreover, the solubility at 24 h in data set [2] amounted to 0.45 µg/mL (≈ 0.913 µM).
On the same counts, the results for `C#C[C@]1(COC(=O)OCc2ccccc2)O[C@@H](n2ccc3c(N)nc(Cl)nc32)C[C@@H]1OC(=O)CCC` [Example 194] are 17 nM and 2.3 µg/mL (≈ 4.48 µM).
Take `C#C[C@]1(COC(=O)OCCCCCCCCCCCC)O[C@@H](n2ccc3c(N)nc(Cl)nc32)C[C@@H]1O` [Example 117]: the IC50 in data set [1] (setting [3]) was determined as 4 nM. Moreover, the solubility at 24 h in data set [2] was below 1 µg/mL.
On the same counts, the results for `C#C[C@]1(COC(=O)OCc2ccccc2)O[C@@H](n2ccc3c(N)nc(Cl)nc32)C[C@@H]1OC(=O)OCCCC` [Example 212] are 4.8 nM and below 1 µg/mL.
For `C#C[C@]1(COC(=O)OCc2ccccc2)O[C@@H](n2ccc3c(N)nc(Cl)nc32)C[C@@H]1OC(=O)OCCCCCCCC` [Example 213], the IC50 in data set [1] (setting [3]) was 7.9 nM. The solubility at 24 h in data set [2] is below 1 µg/mL.
Take `C#C[C@]1(COC(=O)OCCCC)O[C@@H](n2ccc3c(N)nc(Cl)nc32)C[C@@H]1OC(=O)OCC` [Example 216]: the half-maximal inhibitory concentration (IC50) in data set [1] (setting [3]) amounted to 21 nM. Besides, in data set [2], the solubility at 24 h is below 1 µg/mL.
Regarding `C#C[C@]1(COC(=O)CC2CCCCC2)O[C@@H](n2ccc3c(N)nc(Cl)nc32)C[C@@H]1O` [Example 182], the IC50 in data set [1] (setting [3]) is 3.1 nM. Also, in data set [2], the solubility at 24 h amounted to 124 µg/mL (≈ 286 µM).
Take `C#C[C@]1(CO)O[C@@H](n2ccc3c(N)nc(Cl)nc32)C[C@@H]1OC(=O)CCc1ccccc1` [Example 81]: the IC50 in data set [1] (setting [3]) was determined as 3.3 nM. Also, the solubility at 24 h in data set [2] stood at 2 µg/mL (≈ 4.54 µM).
Regarding `C#C[C@]1(CO)O[C@@H](n2ccc3c(NC(=O)Cc4ccccc4)nc(Cl)nc32)C[C@@H]1O` [Example 199], the IC50 in data set [1] (setting [3]) came to 230 nM. In addition, the solubility at 24 h in data set [2] is 51 µg/mL (≈ 119 µM).
On the same counts, the results for `C#C[C@]1(COC(=O)OCc2ccccc2)O[C@@H](n2ccc3c(N)nc(Cl)nc32)C[C@@H]1O` [Example 114, ((2R,3S,5R)-5-(4-amino-2-chloro-7H-pyrrolo[2,3-d]pyrimidin-7-yl)-2-ethynyl-3-hydroxytetrahydrofuran-2-yl)methyl benzyl carbonate] are 3.9 nM and 66 µg/mL (≈ 149 µM).
Take `C#C[C@]1(COC(=O)CCCCCCCCC)O[C@@H](n2ccc3c(N)nc(Cl)nc32)C[C@@H]1OC(=O)CC` [Example 47, ((2R,3S,5R)-5-(4-amino-2-chloro-7H-pyrrolo[2,3-d]pyrimidin-7-yl)-2-ethynyl-3-(propionyloxy)tetrahydrofuran-2-yl)methyl decanoate]: the half-inhibitory concentration (IC50) in data set [1] (setting [3]) was found to be 34 nM. Moreover, in data set [2], the solubility at 24 h is below 1 µg/mL.
As to `C#C[C@]1(CO)O[C@@H](n2ccc3c(NC(=O)CCc4ccccc4)nc(Cl)nc32)C[C@@H]1O` [Example 200], the IC50 in data set [1] (setting [3]) turned out to be 155 nM. Besides, the solubility at 24 h in data set [2] was 307 µg/mL (≈ 696 µM).
Take `C#C[C@]1(CO)O[C@@H](n2ccc3c(N)nc(Cl)nc32)C[C@@H]1OC(=O)OCCCCCCCCC` [Example 38, (2R,3S,5R)-5-(4-amino-2-chloro-7H-pyrrolo[2,3-d]pyrimidin-7-yl)-2-ethynyl-2-(hydroxymethyl)tetrahydrofuran-3-yl nonyl carbonate]: in data set [1] (setting [3]), the half-inhibitory concentration (IC50) is 8 nM. Also, in data set [2], the solubility at 24 h is below 1 µg/mL.
`C#C[C@]1(CO)O[C@@H](n2ccc3c(N)nc(Cl)nc32)C[C@@H]1OC(=O)OCCCc1ccccc1` [Example 152]: the IC50 in data set [1] (setting [3]) was found to be 6 nM. Further, the solubility at 24 h in data set [2] is below 1 µg/mL.
Turning to `C#C[C@]1(COCOC(=O)CCCCCCCCC)O[C@@H](n2ccc3c(N)nc(Cl)nc32)C[C@@H]1O` [Example 136], the IC50 in data set [1] (setting [3]) came to 3.2 nM. Besides, the solubility at 24 h in data set [2] is below 1 µg/mL.
For the molecule `C#C[C@]1(CO)O[C@@H](n2ccc3c(N)nc(Cl)nc32)C[C@@H]1OC(=O)OCCCCCC` [Example 61, (2R,3S,5R)-5-(4-amino-2-chloro-7H-pyrrolo[2,3-d]pyrimidin-7-yl)-2-ethynyl-2-(hydroxymethyl)tetrahydrofuran-3-yl hexyl carbonate], the IC50 in data set [1] (setting [3]) came out at 4.5 nM. In data set [2], the solubility at 24 h was below 1 µg/mL.
Take `C#C[C@]1(COC(=O)OC(CC)CC)O[C@@H](n2ccc3c(N)nc(Cl)nc32)C[C@@H]1OC(=O)OC(CC)CC` [Example 142]: the IC50 in data set [1] (setting [3]) came to 1760 nM. Besides, in data set [2], the solubility at 24 h is below 1 µg/mL.
`C#C[C@]1(COC(=O)CCCC[C@@H]2SC[C@@H]3NC(=O)N[C@@H]32)O[C@@H](n2ccc3c(N)nc(Cl)nc32)C[C@@H]1OC(=O)CCCC[C@@H]1SC[C@@H]2NC(=O)N[C@@H]21` [Example 74]: the IC50 in data set [1] (setting [3]) came to 69 nM. Further, the solubility at 24 h in data set [2] is below 1 µg/mL.
In the case of `C#C[C@]1(CO)O[C@@H](n2ccc3c(N)nc(Cl)nc32)C[C@@H]1OC(=O)CCC12CC3CC(CC(C3)C1)C2` [Example 30], the IC50 in data set [1] (setting [3]) was 3.6 nM. Further, the solubility at 24 h in data set [2] was below 1 µg/mL.
Take `C#C[C@]1(COC(=O)OCc2ccccc2)O[C@@H](n2ccc3c(N)nc(Cl)nc32)C[C@@H]1O` [Example 122]: the IC50 in data set [1] (10% normal human serum) was determined as 4 nM. Moreover, the “Aqu. Solubility” value in data set [2] worked out at 107 µg/mL.
With `C#C[C@]1(CO)O[C@@H](n2ccc3c(NC(=O)CCCCCCCCC)nc(Cl)nc32)C[C@@H]1O` [Example 197], the IC50 in data set [1] (setting [3]) came to 29 nM. For the same molecule, in data set [2], the solubility at 24 h was below 1 µg/mL.

Broadly, the IC50 is the concentration needed to halve the response being measured. Broadly, the solubility is the concentration that dissolves in the medium under given conditions.
